Assay [1] concerns the target T1, DAT-expressing SK-N-MC cells (Homo sapiens, UniProt Q01959).
T1 construct: expressed in transfected cells; host or cells: SK-N-MC (human neuroblastoma)
Briefly: Superfusion experiments: [3H]MPP+ efflux and d-amphetamine interaction. The following applies: for action on the dopamine-releasing effect of D-amphetamine: 3 µM D-amphetamine; for efflux-increasing (releasing) action on DAT-expressing, substrate-loaded superfused cells: compound alone. The assay is classed as cell-based.

The target of assay [2] is T2, human SERT (Homo sapiens, UniProt P31645).
T2 construct: host or cells: CHO
Briefly: Radioligand binding assay, [3H]imipramine, CHO cells (Eurofins Cerep). The following applies: human SERT expressed in CHO cells; read-out: Ki, binding sites of the SERT (against [3H]imipramine). Here is the method:
Binding experiments. Binding affinity to the human DAT, SERT, and NET stable proteins expressed in CHO cells was evaluated in in vitro radioligand binding assays. Non-specific binding was determined using [^3H]BTCP, [^3H]imipramine, and ^[3H] nisoxetine for hDAT, hSERT, and hNET, respectively. The IC50 values were calculated by non-linear regression analysis of the competition curves generated from the mean replicate values. The Ki values were calculated using the Cheng–Prusoff equation (Ki = IC50/(1 + […])). Binding assays were carried out by Eurofins (Cerep SA, Celle l’Evescault, France), Study No. 100053935. For an in-depth description, please refer to the report in the supporting information file.

For assay [3], the target named is T3, human serotonin transporter/SLC6A4 (SERT) (Homo sapiens, UniProt P31645).
T3 construct: expressed in transfected cells; host or cells: HEK293
Briefly: Cellular uptake experiments: [3H]-serotonin reuptake inhibition in transporter-expressing HEK293 cells. It counts as cell-based. The note with it: Reuptake Inhibition (IC50 ± SE, µM) SERT, cells stably expressing SERT; [3H]-serotonin 1 µM; screening cut-off 50 µM. In a few lines: (§1)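 Stably transfected HEK293 cells preincubated 5 min with compound, then 1 µM [3H]-substrate for 2.5 min (SERT: 5 min) at 25 °C, pH 7.1 buffer; uptake counted by scintillation. Nonspecific uptake defined with 10 µM mazindol (DAT, NET) or 10 µM clomipramine (SERT).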

Assay [4] addresses T4, noradrenaline transporter/SLC6A2 (NET) (Homo sapiens, UniProt P23975).
T4 construct: expressed in transfected cells; host or cells: HEK293
Briefly: Cellular uptake experiments: [3H]-noradrenaline reuptake inhibition in transporter-expressing HEK293 cells. The assay is classed as cell-based. In a few lines: as §1

The structures appear in SMILES notation. “Also recorded” adds a separate entry of the source.

T1 sequence (Q01959 whole entry): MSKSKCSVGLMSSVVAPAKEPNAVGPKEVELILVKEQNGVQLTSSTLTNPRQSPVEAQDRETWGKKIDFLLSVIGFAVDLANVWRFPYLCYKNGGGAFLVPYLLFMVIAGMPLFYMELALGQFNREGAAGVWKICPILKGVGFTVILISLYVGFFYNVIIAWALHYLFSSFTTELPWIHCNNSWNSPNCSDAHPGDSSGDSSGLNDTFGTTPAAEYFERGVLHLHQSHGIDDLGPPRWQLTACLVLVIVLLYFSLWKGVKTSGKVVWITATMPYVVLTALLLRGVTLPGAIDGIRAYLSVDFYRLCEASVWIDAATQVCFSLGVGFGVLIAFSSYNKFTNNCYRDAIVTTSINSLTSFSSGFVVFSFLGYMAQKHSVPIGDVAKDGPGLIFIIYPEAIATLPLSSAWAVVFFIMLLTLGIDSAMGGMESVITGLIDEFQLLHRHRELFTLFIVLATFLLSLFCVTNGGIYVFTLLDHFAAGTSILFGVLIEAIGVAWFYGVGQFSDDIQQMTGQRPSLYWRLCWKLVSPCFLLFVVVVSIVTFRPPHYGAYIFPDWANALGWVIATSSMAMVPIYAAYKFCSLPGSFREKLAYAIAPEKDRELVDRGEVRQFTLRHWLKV
T4 sequence (P23975 whole entry): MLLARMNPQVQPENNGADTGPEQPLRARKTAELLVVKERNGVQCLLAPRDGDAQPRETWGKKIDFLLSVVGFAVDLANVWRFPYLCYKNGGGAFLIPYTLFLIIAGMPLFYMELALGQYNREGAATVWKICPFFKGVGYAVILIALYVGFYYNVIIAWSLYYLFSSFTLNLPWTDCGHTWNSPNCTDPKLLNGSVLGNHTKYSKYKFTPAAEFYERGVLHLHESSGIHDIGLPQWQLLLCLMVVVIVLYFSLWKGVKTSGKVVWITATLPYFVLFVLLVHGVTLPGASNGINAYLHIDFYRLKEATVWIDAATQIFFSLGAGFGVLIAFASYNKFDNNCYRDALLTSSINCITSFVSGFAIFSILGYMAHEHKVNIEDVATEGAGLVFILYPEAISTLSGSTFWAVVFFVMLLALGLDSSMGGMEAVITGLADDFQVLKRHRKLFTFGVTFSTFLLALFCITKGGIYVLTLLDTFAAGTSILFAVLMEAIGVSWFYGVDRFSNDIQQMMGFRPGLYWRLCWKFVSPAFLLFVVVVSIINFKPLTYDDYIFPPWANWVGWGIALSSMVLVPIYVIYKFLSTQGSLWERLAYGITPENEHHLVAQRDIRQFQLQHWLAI
T2 sequence (P31645 whole entry): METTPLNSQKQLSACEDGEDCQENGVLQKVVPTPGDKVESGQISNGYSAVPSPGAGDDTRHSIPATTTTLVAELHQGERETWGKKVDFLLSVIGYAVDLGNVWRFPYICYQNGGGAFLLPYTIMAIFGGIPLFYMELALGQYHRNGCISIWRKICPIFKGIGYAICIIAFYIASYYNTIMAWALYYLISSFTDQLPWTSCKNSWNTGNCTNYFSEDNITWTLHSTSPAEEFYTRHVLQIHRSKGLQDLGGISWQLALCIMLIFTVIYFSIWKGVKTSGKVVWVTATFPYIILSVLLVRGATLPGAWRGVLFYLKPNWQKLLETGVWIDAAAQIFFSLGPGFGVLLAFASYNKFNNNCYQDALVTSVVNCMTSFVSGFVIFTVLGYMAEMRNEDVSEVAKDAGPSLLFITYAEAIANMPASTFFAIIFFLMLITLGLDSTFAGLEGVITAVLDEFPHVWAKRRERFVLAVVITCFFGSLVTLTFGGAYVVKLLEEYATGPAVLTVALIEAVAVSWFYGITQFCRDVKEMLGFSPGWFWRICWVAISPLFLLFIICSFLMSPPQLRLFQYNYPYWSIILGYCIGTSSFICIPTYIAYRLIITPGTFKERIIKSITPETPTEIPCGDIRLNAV
T3 sequence (P31645 whole entry): as above

As to `[O-][S@@+](Cc1cccs1)[C@@H](c1ccccc1)c1cccc(Br)c1` [Compound 7h, (S,S)-2-((((3-bromophenyl)(phenyl)methyl)sulfinyl)methyl)thiophene], in assay [1], the “action on the dopamine-releasing effect of D-amphetamine” value is given as “potent inhibiting action” and the “efflux-increasing (releasing) action on DAT-expressing, substrate-loaded superfused cells” value is recorded as “absence of an efflux-increasing action; also recorded: lack of amphetamine-like effects”. Further, in assay [2], the Ki (in general, the equilibrium dissociation constant of an inhibitor or competing ligand from its target) was above 10 µM. Moreover, in assay [3], the IC50 (usually the concentration that inhibits the measured activity by half) is above 50 µM. The same molecule came in with an IC50 in assay [4] of 16.4 ± 0.6 µM.
For `[O-][S@+](Cc1cccs1)[C@H](c1ccccc1)c1cccc(Br)c1` [Compound 8h, (R,R)-2-((((3-bromophenyl)(phenyl)methyl)sulfinyl)methyl)thiophene], in assay [1], the “action on the dopamine-releasing effect of D-amphetamine” value is listed as “potent inhibiting action” and the “efflux-increasing (releasing) action on DAT-expressing, substrate-loaded superfused cells” value is “absence of an efflux-increasing action; also recorded: lack of amphetamine-like effects”. Further, the inhibition constant Ki in assay [2] is above 10 µM. In addition, in assay [3], the IC50 worked out at 14 ± 3 µM. Moreover, the IC50 in assay [4] is above 50 µM.
